From patent US10689354B2, “Aminoazole derivative” (Teijin Pharma Limited, priority 2015, dated 2020)

How the values were obtained:
[1] = biological target: T1, androgen receptor (AR-LBD) (Rattus norvegicus, UniProt P15207); test: Evaluation of androgen receptor affinity (PolarScreen Androgen Receptor Competitor Assay Kit, Red; fluorescence polarization); conditions: 22° C. for 5 hours, relative to binding rate of 1 μM DHT, read-out: AR affinity (pEC50) (converted)
T1 construct: 5 μL of 2×AR-LBD/Fluoromone AL Red Complex contained in the kit; purchased Invitrogen
T1 sequence (P15207 651-882 limits assumed): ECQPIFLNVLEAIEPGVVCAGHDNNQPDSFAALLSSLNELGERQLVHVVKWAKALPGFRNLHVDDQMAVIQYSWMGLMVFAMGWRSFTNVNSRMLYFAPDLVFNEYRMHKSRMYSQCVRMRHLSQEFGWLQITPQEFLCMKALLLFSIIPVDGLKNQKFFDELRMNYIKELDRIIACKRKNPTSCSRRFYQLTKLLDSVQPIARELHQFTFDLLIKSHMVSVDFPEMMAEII
Procedure, shortened: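 Duplicate wells of test compound were mixed with the kit's rat AR-LBD–Fluoromone AL Red tracer complex and left 5 hours at 22 °C before polarization was read. A 4-parameter fit gave pEC50, with binding rate referenced to 1 μM dihydrotestosterone.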

human androgen receptor = biological target: T2, human androgen receptor (Homo sapiens, UniProt P10275); test: Reporter assay of an androgen receptor responsive sequence (luciferase, transiently transfected HEK293 cells); format: cell-based; conditions: 24 hours incubation, relative to activity of 100 nM DHT, read-out: AR transcriptive activity (pEC50) (converted)
T2 construct: expressed in transfected cells; host or cells: HEK293
T2 sequence (P10275 1-920): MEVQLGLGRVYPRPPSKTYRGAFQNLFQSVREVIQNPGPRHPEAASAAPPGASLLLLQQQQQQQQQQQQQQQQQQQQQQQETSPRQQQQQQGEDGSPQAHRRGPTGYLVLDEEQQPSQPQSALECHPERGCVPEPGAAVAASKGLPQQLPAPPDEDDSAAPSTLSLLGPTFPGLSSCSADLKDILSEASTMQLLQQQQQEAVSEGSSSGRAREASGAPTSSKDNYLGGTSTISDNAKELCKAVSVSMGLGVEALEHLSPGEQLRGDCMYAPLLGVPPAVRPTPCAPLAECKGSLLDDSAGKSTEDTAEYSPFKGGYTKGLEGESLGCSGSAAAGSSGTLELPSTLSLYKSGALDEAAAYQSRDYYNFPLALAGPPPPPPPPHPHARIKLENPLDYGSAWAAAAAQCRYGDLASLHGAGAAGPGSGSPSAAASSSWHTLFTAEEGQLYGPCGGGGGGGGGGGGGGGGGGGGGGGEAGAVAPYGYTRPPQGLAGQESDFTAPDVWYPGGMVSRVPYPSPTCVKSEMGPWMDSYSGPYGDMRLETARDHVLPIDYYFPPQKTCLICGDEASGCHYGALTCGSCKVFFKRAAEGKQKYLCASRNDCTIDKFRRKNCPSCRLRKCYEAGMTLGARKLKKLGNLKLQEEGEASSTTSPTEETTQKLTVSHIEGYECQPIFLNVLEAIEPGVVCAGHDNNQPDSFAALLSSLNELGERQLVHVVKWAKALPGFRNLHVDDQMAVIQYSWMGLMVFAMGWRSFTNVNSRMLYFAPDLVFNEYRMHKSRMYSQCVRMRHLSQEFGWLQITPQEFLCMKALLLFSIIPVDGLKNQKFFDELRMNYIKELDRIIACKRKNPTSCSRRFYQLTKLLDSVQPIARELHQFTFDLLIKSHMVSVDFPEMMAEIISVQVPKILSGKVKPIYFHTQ
Procedure, shortened: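 Agonism scored as pEC50, fitted by 4-parameter curve against the response to 100 nM DHT, from dual-luciferase readout after 24 h compound treatment. Cells were HEK293 co-transfected (3 h) with human AR expression vector, androgen-responsive firefly reporter and Renilla control, in charcoal-stripped serum.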

Compound | EC50 [1] [µM] | EC50 (human androgen receptor) [µM]
Cc1sc(N(Cc2ccccc2)c2ccc(C#N)cc2)nc1C(=O)NS(=O)(=O)C(F)F [Compound 69, 2-(N-benzyl-4-cyano-anilino)-N-(difluoromethylsulfonyl)-5-methyl-thiazole-4-carboxamide] | 0.0251 | 1.26
Cc1sc(N(Cc2ccc(Cl)cc2F)c2ccc(C#N)cc2)nc1C(=O)NS(C)(=O)=O [Compound 70, 2-[N-[(4-chloro-2-fluoro-phenyl)methyl]-4-cyano-anilino]-5-methyl-N-methylsulfonyl-thiazole-4-carboxamide] | 0.0316 | 0.0631
CCCCCCN(c1ccc(C#N)cc1)c1nc(C(=O)NS(C)(=O)=O)c(C)s1 [Compound 75, 2-(4-cyano-N-hexyl-anilino)-5-methyl-N-methylsulfonyl-thiazole-4-carboxamide] | 0.0316 | 0.398
Cc1sc(N(CC23CC4CC(CC(C4)C2)C3)c2ccc(C#N)cc2)nc1C(=O)NS(C)(=O)=O [Compound 76, 2-[N-(1-adamantylmethyl)-4-cyano-anilino]-5-methyl-N-methylsulfonyl-thiazole-4-carboxamide] | 0.0501 | > 10
Cc1sc(N(Cc2cccs2)c2ccc(C#N)cc2)nc1C(=O)NS(C)(=O)=O [Compound 77, 2-[4-cyano-N-(2-thienylmethyl)anilino]-5-methyl-N-methylsulfonyl-thiazole-4-carboxamide] | 0.0501 | 0.631
Cc1sc(N(CCC2CCCC2)c2ccc(C#N)cc2)nc1C(=O)NS(C)(=O)=O [Compound 78, 2-[4-cyano-N-(2-cyclopentylethyl)anilino]-5-methyl-N-methylsulfonyl-thiazole-4-carboxamide] | 0.0251 | 0.158
Cc1sc(N(Cc2ccccc2SC(F)F)c2ccc(C#N)cc2)nc1C(=O)NS(C)(=O)=O [Compound 79, 2-[4-cyano-N-[[2-(difluoromethylsulfanyl)phenyl]methyl]anilino]-5-methyl-N-methylsulfonyl-thiazole-4-carboxamide] | 0.0158 | 0.0501
Cc1sc(N(CCc2ccccc2F)c2ccc(C#N)cc2)nc1C(=O)NS(C)(=O)=O [Compound 80, 2-[4-cyano-N-[2-(2-fluorophenyl)ethyl]anilino]-5-methyl-N-methylsulfonyl-thiazole-4-carboxamide] | 0.316 | > 10
Cc1sc(N(CCc2ccc(F)cc2)c2ccc(C#N)cc2)nc1C(=O)NS(C)(=O)=O [Compound 81, 2-[4-cyano-N-[2-(4-fluorophenyl)ethyl]anilino]-5-methyl-N-methylsulfonyl-thiazole-4-carboxamide] | 0.158 | 1.58
Cc1sc(N(Cc2cccc(Oc3ccccc3)c2)c2ccc(C#N)cc2)nc1C(=O)NS(C)(=O)=O [Compound 82, 2-[4-cyano-N-[(3-phenoxyphenyl)methyl]anilino]-5-methyl-N-methylsulfonyl-thiazole-4-carboxamide] | 0.0794 | > 10
Cc1sc(N(CCc2cccc(F)c2)c2ccc(C#N)cc2)nc1C(=O)NS(C)(=O)=O [Compound 83, 2-[4-cyano-N-[2-(3-fluorophenyl)ethyl]anilino]-5-methyl-N-methylsulfonyl-thiazole-4-carboxamide] | 0.126 | 2.51
Cc1sc(N(Cc2ccsc2)c2ccc(C#N)cc2)nc1C(=O)NS(C)(=O)=O [Compound 85, 2-[4-cyano-N-(3-thienylmethyl)anilino]-5-methyl-N-methylsulfonyl-thiazole-4-carboxamide] | 0.2 | 0.316
Cc1sc(N(Cc2ccoc2)c2ccc(C#N)cc2)nc1C(=O)NS(C)(=O)=O [Compound 86, 2-[4-cyano-N-(3-furylmethyl)anilino]-5-methyl-N-methylsulfonyl-thiazole-4-carboxamide] | 0.251 | 1.58
Cc1sc(N(Cc2ccco2)c2ccc(C#N)cc2)nc1C(=O)NS(C)(=O)=O [Compound 87, 2-[4-cyano-N-(2-furylmethyl)anilino]-5-methyl-N-methylsulfonyl-thiazole-4-carboxamide] | 0.158 | 1
Cc1sc(N(CCc2ccc3ccccc3c2)c2ccc(C#N)cc2)nc1C(=O)NS(C)(=O)=O [Compound 88, 2-[4-cyano-N-[2-(2-naphthyl)ethyl]anilino]-5-methyl-N-methylsulfonyl-thiazole-4-carboxamide] | 0.316 | > 10
CCC(C)CN(c1ccc(C#N)cc1)c1nc(C(=O)NS(C)(=O)=O)c(C)s1 (stereo not shown) [Compound 89, 2-[4-cyano-N-(2-methylbutyl)anilino]-5-methyl-N-methylsulfonyl-thiazole-4-carboxamide] | 0.501 | > 10
Cc1sc(N(CCC(C)(C)C)c2ccc(C#N)cc2)nc1C(=O)NS(C)(=O)=O [Compound 90, 2-[4-cyano-N-(3,3-dimethylbutyl)anilino]-5-methyl-N-methylsulfonyl-thiazole-4-carboxamide] | 0.398 | > 10
Cc1sc(N(Cc2ccccc2)c2ccc(OC(F)F)cc2)nc1C(=O)NS(C)(=O)=O [Compound 91, 2-[N-benzyl-4-(difluoromethoxy)anilino]-5-methyl-N-methylsulfonyl-thiazole-4-carboxamide] | 0.1 | 1.58
Cc1sc(N(Cc2ccc(C(F)F)cc2)c2ccc(C#N)cc2)nc1C(=O)NS(C)(=O)=O [Compound 94, 2-[4-cyano-N-[[4-(difluoromethyl)phenyl]methyl]anilino]-5-methyl-N-methylsulfonyl-thiazole-4-carboxamide] | 0.0398 | 0.0251
Cc1sc(N(Cc2cc(F)cc(F)c2)c2ccc(C#N)cc2)nc1C(=O)NS(C)(=O)=O [Compound 96, 2-[4-cyano-N-[(3,5-difluorophenyl)methyl]anilino]-5-methyl-N-methylsulfonyl-thiazole-4-carboxamide] | 0.0794 | 0.1
Cc1sc(N(Cc2ccc(F)c(F)c2)c2ccc(C#N)cc2)nc1C(=O)NS(C)(=O)=O [Compound 97, 2-[4-cyano-N-[(3,4-difluorophenyl)methyl]anilino]-5-methyl-N-methylsulfonyl-thiazole-4-carboxamide] | 0.0501 | 0.0316
Cc1sc(N(Cc2cc(F)cc(Cl)c2)c2ccc(C#N)cc2)nc1C(=O)NS(C)(=O)=O [Compound 99, 2-[N-[(3-chloro-5-fluoro-phenyl)methyl]-4-cyano-anilino]-5-methyl-N-methylsulfonyl-thiazole-4-carboxamide] | 0.0631 | 0.126
Cc1sc(N(Cc2ccc(Cl)c(Cl)c2)c2ccc(C#N)cc2)nc1C(=O)NS(C)(=O)=O [Compound 100, 2-[4-cyano-N-[(3,4-dichlorophenyl)methyl]anilino]-5-methyl-N-methylsulfonyl-thiazole-4-carboxamide] | 0.0316 | 0.0158
Cc1sc(N(Cc2cccc(F)c2F)c2ccc(C#N)cc2)nc1C(=O)NS(C)(=O)=O [Compound 102, 2-[4-cyano-N-[(2,3-difluorophenyl)methyl]anilino]-5-methyl-N-methylsulfonyl-thiazole-4-carboxamide] | 0.0794 | 0.0501
Cc1sc(N(Cc2cc(F)ccc2F)c2ccc(C#N)cc2)nc1C(=O)NS(C)(=O)=O [Compound 103, 2-[4-cyano-N-[(2,5-difluorophenyl)methyl]anilino]-5-methyl-N-methylsulfonyl-thiazole-4-carboxamide] | 0.158 | 0.316
Cc1sc(N(Cc2ccc(F)cc2F)c2ccc(C#N)cc2)nc1C(=O)NS(C)(=O)=O [Compound 104, 2-[4-cyano-N-[(2,4-difluorophenyl)methyl]anilino]-5-methyl-N-methylsulfonyl-thiazole-4-carboxamide] | 0.0501 | 0.126
